In ChEMBL document CHEMBL5360573, “Discovery of novel tryptamine derivatives as GluN2B subunit-containing NMDA receptor antagonists via pharmacophore-merging strategy with orally available therapeutic effect of cerebral ischemia” (Eur J Med Chem, 2023):
Values belong to the molecule of their own block, whether it stands above or below them. Active and inactive are the calls of the source. No cut-off for these calls is given here.

Tests used:
SH-SY5Y [1] = experiment: Neuroprotective activity against NMDA-induced cell injury in human SH-SY5Y cells assessed as cell viability at 0.05 uM incubated for 6 hrs followed by NMDA treatment for 0.5 hrs and subsequent replacement of fresh medium without compounds by MTT assay relative to control; format: functional; details: time 6.5 hrs, read-out: Activity
SH-SY5Y [2] = experiment: Neuroprotective activity against NMDA-induced cell injury in human SH-SY5Y cells assessed as cell viability at 0.5 uM incubated for 6 hrs followed by NMDA treatment for 0.5 hrs and subsequent replacement of fresh medium without compounds by MTT assay relative to control; format: functional; details: time 6.5 hrs, read-out: Activity
SH-SY5Y [3] = experiment: Neuroprotective activity against NMDA-induced cell injury in human SH-SY5Y cells assessed as cell viability at 5 uM incubated for 6 hrs followed by NMDA treatment for 0.5 hrs and subsequent replacement of fresh medium without compounds by MTT assay relative to control; format: functional; details: time 6.5 hrs, read-out: Activity
[4] = target: Glutamate receptor ionotropic, NMDA 2B (Homo sapiens) (UniProt Q13224); experiment: Antagonist activity against GluN2B NMDAR in human SH-SY5Y cells assessed as reduction in NMDA-induced intracellular influx at 5 uM incubated for 6 hrs followed by replacement of fresh medium without compounds and subsequent NMDA treatment by Fluo-4AM dye based calcium mobilization assay; format: cell-based; details: filed as antagonist
[5] = target: Glutamate receptor ionotropic, NMDA 2B (Homo sapiens) (UniProt Q13224); experiment: Antagonist activity against GluN2B NMDAR in human SH-SY5Y cells assessed as increase in NMDA-induced downregulation of phosphorylated ERK1/2 at 0.05 to 5 uM incubated for 6 hrs followed by NMDA treatment for 0.5 hrs and subsequent replacement of fresh medium without compounds by Western blot analysis; format: cell-based; details: filed as antagonist, dose 0.05-5 µM, time 6.5 hrs
[6] = Metabolic stability in human plasma assessed as compound remaining at 2 uM measured immediately by LC-MS/MS analysis; format: ADME, cell-free; details: read-out: Stability
[7] = Metabolic stability in human plasma assessed as compound remaining at 2 uM measured after 10 mins by LC-MS/MS analysis; format: ADME, cell-free; details: read-out: Stability
[8] = Metabolic stability in human plasma assessed as compound remaining at 2 uM measured after 30 mins by LC-MS/MS analysis; format: ADME, cell-free; details: read-out: Stability
[9] = Metabolic stability in human plasma assessed as compound remaining at 2 uM measured after 60 mins by LC-MS/MS analysis; format: ADME, cell-free; details: read-out: Stability
[10] = Metabolic stability in human plasma assessed as compound remaining at 2 uM measured after 120 mins by LC-MS/MS analysis; format: ADME, cell-free; details: read-out: Stability
[11] = Metabolic stability in human plasma assessed as half life at 2 uM by LC-MS/MS analysis; format: ADME, cell-free
[12] = Half life in C57 mouse at 10 mg/kg, po measured for 20 mins by LC-MS/MS analysis; format: ADME, organism-based; details: in vivo
[13] = Tmax in C57 mouse at 10 mg/kg, po measured for 20 mins by LC-MS/MS analysis; format: ADME, organism-based; details: in vivo
[14] = Cmax in C57 mouse at 10 mg/kg, po measured for 20 mins by LC-MS/MS analysis; format: ADME, organism-based; design: dose 10 mg/kg, time 20 min, route po; details: in vivo
[15] = AUC (0 to t) in C57 mouse at 10 mg/kg, po measured for 20 mins by LC-MS/MS analysis; format: ADME, organism-based; design: time 20 min, dose 10 mg/kg, route po; details: in vivo
[16] = AUC (0 to infinity) in C57 mouse at 10 mg/kg, po measured for 20 mins by LC-MS/MS analysis; format: ADME, organism-based; design: dose 10 mg/kg, time 20 min, route po; details: in vivo
[17] = MRT (0 to t) in C57 mouse at 10 mg/kg, po measured for 20 mins by LC-MS/MS analysis; format: ADME, organism-based; details: in vivo
[18] = MRT (0 to infinity) in C57 mouse at 10 mg/kg, po measured for 20 mins by LC-MS/MS analysis; format: ADME, organism-based; details: in vivo
[19] = Oral bioavailability in C57 mouse at 10 mg/kg measured for 20 mins by LC-MS/MS analysis; format: ADME, organism-based; details: in vivo
[20] = Half life in C57 mouse at 1 mg/kg, iv measured for 20 mins by LC-MS/MS analysis; format: ADME, organism-based; details: in vivo
[21] = Tmax in C57 mouse at 1 mg/kg, iv measured for 20 mins by LC-MS/MS analysis; format: ADME, organism-based; details: in vivo
[22] = Cmax in C57 mouse at 1 mg/kg, iv measured for 20 mins by LC-MS/MS analysis; format: ADME, organism-based; design: dose 1 mg/kg, time 20 min, route iv; details: in vivo
[23] = AUC (0 to t) in C57 mouse at 1 mg/kg, iv measured for 20 mins by LC-MS/MS analysis; format: ADME, organism-based; design: time 20 min, dose 1 mg/kg, route iv; details: in vivo
[24] = AUC (0 to infinity) in C57 mouse at 1 mg/kg, iv measured for 20 mins by LC-MS/MS analysis; format: ADME, organism-based; design: dose 1 mg/kg, time 20 min, route iv; details: in vivo
[25] = Clearance in C57 mouse at 1 mg/kg, iv measured for 20 mins by LC-MS/MS analysis; format: ADME, organism-based; details: in vivo
[26] = MRT (0 to t) in C57 mouse at 1 mg/kg, iv measured for 20 mins by LC-MS/MS analysis; format: ADME, organism-based; details: in vivo
[27] = MRT (0 to infinity) in C57 mouse at 1 mg/kg, iv measured for 20 mins by LC-MS/MS analysis; format: ADME, organism-based; details: in vivo
Mus musculus [28] = experiment: Neuroprotective activity against ICV-ET1-induced cerebral ischemia injury C57BL/6J mouse model assessed as improvement of spontaneous alternation behavior administered orally daily for 10 days by Y-maze test; format: functional, organism-based; details: dose 20-80 mg/kg, route po, time 10.0 day
Mus musculus [29] = experiment: Neuroprotective activity against ICV-ET1-induced cerebral ischemia injury C57BL/6J mouse model assessed as increase in preferential index at 20 to 80 mg/kg, po administered daily measured on day 11 to 13 by novel object recognition test; format: functional, organism-based; details: dose 20-80 mg/kg, time 11-13 day
Mus musculus [30] = experiment: Neuroprotective activity against ICV-ET1-induced cerebral ischemia injury C57BL/6J mouse model assessed as improvement in escape latency at 20 to 80 mg/kg, po administered daily measured on day 14 to 19 by Morris water maze test; format: functional, organism-based; details: dose 20-80 mg/kg, time 14-19 day
Mus musculus [31] = experiment: Neuroprotective activity against ICV-ET1-induced cerebral ischemia injury C57BL/6J mouse model assessed as improvement in swimming distance at 20 to 80 mg/kg, po administered daily measured on day 14 to 19 by Morris water maze test; format: functional, organism-based; details: dose 20-80 mg/kg, time 14-19 day

Sequence of Glutamate receptor ionotropic, NMDA 2B (Homo sapiens) (Q13224 27-1484 limits assumed): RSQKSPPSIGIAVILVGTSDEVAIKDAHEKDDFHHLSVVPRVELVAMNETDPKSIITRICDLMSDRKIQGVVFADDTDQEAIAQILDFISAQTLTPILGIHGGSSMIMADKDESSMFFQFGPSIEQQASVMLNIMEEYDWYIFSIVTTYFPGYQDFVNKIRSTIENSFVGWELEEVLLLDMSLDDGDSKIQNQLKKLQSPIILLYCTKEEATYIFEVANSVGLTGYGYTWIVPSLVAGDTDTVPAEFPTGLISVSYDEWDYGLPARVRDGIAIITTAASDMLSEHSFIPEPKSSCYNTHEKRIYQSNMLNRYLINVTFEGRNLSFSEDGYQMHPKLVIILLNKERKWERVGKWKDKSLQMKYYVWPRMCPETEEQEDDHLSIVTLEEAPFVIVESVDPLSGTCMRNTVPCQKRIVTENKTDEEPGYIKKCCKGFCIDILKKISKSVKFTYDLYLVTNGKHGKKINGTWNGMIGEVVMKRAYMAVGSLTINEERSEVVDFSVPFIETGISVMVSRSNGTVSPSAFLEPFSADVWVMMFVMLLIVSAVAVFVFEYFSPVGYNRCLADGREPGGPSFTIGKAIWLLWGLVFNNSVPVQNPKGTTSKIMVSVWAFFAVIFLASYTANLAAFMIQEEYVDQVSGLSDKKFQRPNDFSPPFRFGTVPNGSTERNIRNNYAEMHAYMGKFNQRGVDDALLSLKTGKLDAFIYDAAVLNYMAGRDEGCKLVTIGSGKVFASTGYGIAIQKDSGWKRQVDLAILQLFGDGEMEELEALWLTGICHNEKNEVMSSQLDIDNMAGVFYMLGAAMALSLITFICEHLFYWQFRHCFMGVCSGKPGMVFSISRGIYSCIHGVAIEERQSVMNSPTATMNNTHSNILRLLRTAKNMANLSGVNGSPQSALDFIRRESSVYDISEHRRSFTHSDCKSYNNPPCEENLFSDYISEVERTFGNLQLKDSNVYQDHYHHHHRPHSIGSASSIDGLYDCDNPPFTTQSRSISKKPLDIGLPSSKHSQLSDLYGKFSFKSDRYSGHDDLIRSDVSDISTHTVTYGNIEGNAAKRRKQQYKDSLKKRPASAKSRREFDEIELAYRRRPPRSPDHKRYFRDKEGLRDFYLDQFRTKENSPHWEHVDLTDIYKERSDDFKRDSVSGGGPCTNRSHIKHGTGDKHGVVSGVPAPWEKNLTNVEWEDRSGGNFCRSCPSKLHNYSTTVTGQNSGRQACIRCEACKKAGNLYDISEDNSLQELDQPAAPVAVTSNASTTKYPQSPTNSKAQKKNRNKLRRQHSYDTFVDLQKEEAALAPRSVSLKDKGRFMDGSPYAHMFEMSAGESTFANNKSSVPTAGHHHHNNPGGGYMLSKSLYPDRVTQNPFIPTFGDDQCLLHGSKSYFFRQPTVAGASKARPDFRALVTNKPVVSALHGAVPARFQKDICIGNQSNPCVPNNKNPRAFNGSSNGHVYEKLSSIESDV

Compound: Cc1ccc(Cn2cc(CCNC(=O)/C=C/c3ccc(O)cc3)c3ccccc32)cc1
viability at 0.05 µM (SH-SY5Y [1]): 19.4% | viability at 0.5 µM (SH-SY5Y [2]): 28.4% | viability at 5 µM (SH-SY5Y [3]): 21%

Compound: CCn1cc(CCNC(=O)/C=C/c2ccc(O)cc2)c2ccccc21
viability at 0.05 µM (SH-SY5Y [1]): 19.9% | viability at 0.5 µM (SH-SY5Y [2]): 22.4% | viability at 5 µM (SH-SY5Y [3]): 19.9%

Activity [4]: Active | Activity [5]: Active | remaining at 0 min, 2 µM [6]: 100% | remaining at 10 min, 2 µM [7]: 97.5% | remaining at 0.5 h, 2 µM [8]: 98.8% | remaining at 1 h, 2 µM [9]: 100% | remaining at 2 h, 2 µM [10]: 100% | half-life at 2 µM [11]: > 289 min | half-life [12]: 66.6 min | Tmax [13]: 30 min | Cmax [14]: 182 ng/mL | AUC(0-t) at 20 min [15]: 261 ng·h/mL | AUC(0-inf) [16]: 269 ng·h/mL | MRT last at 20 min [17]: 74.4 min | MRT inf [18]: 85.2 min | bioavailability [19]: 3.12% | half-life [20]: 40.2 min | Tmax [21]: 4.98 min | Cmax [22]: 1910 ng/mL | AUC(0-t) at 20 min [23]: 860 ng·h/mL | AUC(0-inf) [24]: 863 ng·h/mL | clearance [25]: 20.4 mL/min/kg | MRT last at 20 min [26]: 26.4 min | MRT inf [27]: 27 min
Compound: O=C(/C=C/c1ccc(O)cc1)NCCc1cn(Cc2cccc(Br)c2)c2ccccc12
viability at 0.05 µM (SH-SY5Y [1]): 35.7% | viability at 0.5 µM (SH-SY5Y [2]): 48.8% | viability at 5 µM (SH-SY5Y [3]): 55.8% | Activity (Mus musculus [28]): Dose-Dependent Effect | Activity (Mus musculus [29]): Active | Activity (Mus musculus [30]): Active | Activity (Mus musculus [31]): Active

Compound: CCCn1cc(CCNC(=O)/C=C/c2ccc(O)cc2)c2ccccc21
viability at 0.05 µM (SH-SY5Y [1]): 17.6% | viability at 0.5 µM (SH-SY5Y [2]): 13.5% | viability at 5 µM (SH-SY5Y [3]): 25.1%

Compound: O=C(/C=C/c1ccc(O)cc1)NCCc1cn(CC2CC2)c2ccccc12
viability at 0.05 µM (SH-SY5Y [1]): 19.9% | viability at 0.5 µM (SH-SY5Y [2]): 18.6% | viability at 5 µM (SH-SY5Y [3]): 9.7%

Compound: O=C(NCCc1cn(Cc2ccccc2)c2ccccc12)c1ccc(O)cc1
viability at 0.05 µM (SH-SY5Y [1]): 31.7% | viability at 0.5 µM (SH-SY5Y [2]): 54.3% | viability at 5 µM (SH-SY5Y [3]): 51.4%

Compound: O=C(/C=C/c1ccc(O)c(O)c1)NCCc1cn(Cc2ccccc2)c2ccccc12
viability at 0.05 µM (SH-SY5Y [1]): 34.8% | viability at 0.5 µM (SH-SY5Y [2]): 47.1% | viability at 5 µM (SH-SY5Y [3]): 48.2%

Compound: CCCCn1cc(CCNC(=O)/C=C/c2ccc(O)cc2)c2ccccc21
viability at 0.05 µM (SH-SY5Y [1]): 24.3% | viability at 0.5 µM (SH-SY5Y [2]): 24.1% | viability at 5 µM (SH-SY5Y [3]): 19.3%

Compound: O=C(/C=C/c1ccc(O)cc1)NCCc1cn(Cc2ccccc2Br)c2ccccc12
viability at 0.05 µM (SH-SY5Y [1]): 45.1% | viability at 0.5 µM (SH-SY5Y [2]): 32.3% | viability at 5 µM (SH-SY5Y [3]): 36.7%

Compound: O=C(/C=C/c1ccc(O)cc1)NCCc1cn(CCCc2ccccc2)c2ccccc12
viability at 0.05 µM (SH-SY5Y [1]): 20.1% | viability at 0.5 µM (SH-SY5Y [2]): 19.3% | viability at 5 µM (SH-SY5Y [3]): 12.5%

Compound: O=C(/C=C/c1ccccc1)NCCc1cn(Cc2ccccc2)c2ccccc12
viability at 0.05 µM (SH-SY5Y [1]): 30.4% | viability at 0.5 µM (SH-SY5Y [2]): 8.4% | viability at 5 µM (SH-SY5Y [3]): 24.7%

Compound: O=C(/C=C/c1ccc(O)cc1)NCCc1cn(Cc2ccccc2F)c2ccccc12
viability at 0.05 µM (SH-SY5Y [1]): 32.4% | viability at 0.5 µM (SH-SY5Y [2]): 32.4% | viability at 5 µM (SH-SY5Y [3]): 24.7%

Compound: O=C(/C=C/c1ccc(O)cc1)NCCc1cn(Cc2ccc(Cl)cc2)c2ccccc12
viability at 0.05 µM (SH-SY5Y [1]): 31.9% | viability at 0.5 µM (SH-SY5Y [2]): 22.5% | viability at 5 µM (SH-SY5Y [3]): 21.7%
